{"source": "paper PMC7979765", "about": "“trans-Translation inhibitors bind to a novel site on the ribosome and clear Neisseria gonorrhoeae in vivo” (Nature Communications, 2021)", "experiment": "Pharmacokinetic analyses in mice (PO suspension, IV, SC)", "format": "in vivo, mouse", "conditions": "in vivo", "procedure": "Female CD-1 mice as above were fasted for 2 h prior, and 4 h after dosing. […] […], 3 mice from each group were euthanized by CO2 inhalation, blood was collected by cardiac puncture into K2EDTA collection tubes, and protein was precipitated and analysed by LC/MS-MS for plasma concentrations of MBX-4132. Data were analysed using WinNonLin.\n[…] At 0.083, 0.5, 1, 4, 8 and 24 h post dose, blood was collected from 3 mice/group by tail vein or facial bleed into K2EDTA collection tubes, and protein was precipitated and analysed by LC/MS-MS for plasma concentrations of MBX-4132. Sampling was performed serially, with each mouse contributing sample at all time points. Data were analysed using WinNonLin.", "key": {"[1]": {"conditions": "female, CD-1, mouse, sc, 10 mg/kg, SC (10 mg/kg), mean of 3 animals, read-out: MBX 4132 Concentrations in Mouse Plasma, Mean"}, "[2]": {"conditions": "female, CD-1, mouse, sc, 10 mg/kg, SC (10 mg/kg), individual animals, read-out: MBX 4132 Concentrations in Mouse Plasma"}, "[3]": {"conditions": "female, CD-1, mouse, sc, 25 mg/kg, SC (25 mg/kg), individual animals, read-out: MBX 4132 Concentrations in Mouse Plasma"}, "[4]": {"conditions": "female, CD-1, mouse, sc, 25 mg/kg, SC (25 mg/kg), mean of 3 animals, read-out: MBX 4132 Concentrations in Mouse Plasma, Mean"}, "[5]": {"conditions": "mouse, iv, 10 mg/kg, IV (10 mg/kg), individual animals, read-out: MBX 4132 Concentrations in Mouse Plasma"}, "[6]": {"conditions": "mouse, iv, 10 mg/kg, IV (10 mg/kg), mean of 3 animals, read-out: MBX 4132 Concentrations in Mouse Plasma, Mean"}, "[7]": {"conditions": "mouse, po, 10 mg/kg, PO (10 mg/kg), mean of 3 animals, read-out: MBX 4132 Concentrations in Mouse Plasma, Mean"}, "[8]": {"conditions": "mouse, po, 10 mg/kg, PO (10 mg/kg), individual animals, read-out: MBX 4132 Concentrations in Mouse Plasma"}}, "note": "Read-outs that look alike come from different tables or passages of the source."}
{"smiles": "O=C(Nc1nnc(-c2ccc(F)cc2)o1)N1CCc2ccccc2C1", "note": "[MBX 4132]", "values": [{"measurement": "concentration at 8 h", "setting": "female, CD-1, mouse, po, 10 mg/kg, PO (10 mg/kg susp.), mean of 3 animals, read-out: MBX 4132 Concentrations in Mouse Plasma, Mean", "value": 9920, "unit": "ng/mL"}, {"measurement": "concentration at 24 h", "setting": "female, CD-1, mouse, po, 10 mg/kg, PO (10 mg/kg susp.), individual animals, read-out: MBX 4132 Concentrations in Mouse Plasma", "value": "< 62.5", "unit": "ng/mL"}, {"measurement": "concentration at 0.083 h", "setting": "female, CD-1, mouse, po, 10 mg/kg, PO (10 mg/kg), mean of 3 animals, read-out: MBX 4132 Concentrations in Mouse Plasma, Mean", "value": 1260, "unit": "ng/mL"}, {"measurement": "concentration at 0.083 h", "setting": "[1]", "value": 786, "unit": "ng/mL"}, {"measurement": "concentration at 0.5 h", "setting": "[2]", "value": 3430, "unit": "ng/mL"}, {"measurement": "concentration at 0.5 h", "setting": "[1]", "value": 3780, "unit": "ng/mL"}, {"measurement": "concentration at 1 h", "setting": "[2]", "value": 3480, "unit": "ng/mL"}, {"measurement": "concentration at 1 h", "setting": "[1]", "value": 3350, "unit": "ng/mL"}, {"measurement": "concentration at 4 h", "setting": "[2]", "value": 3280, "unit": "ng/mL"}, {"measurement": "concentration at 4 h", "setting": "[1]", "value": 2850, "unit": "ng/mL"}, {"measurement": "concentration at 8 h", "setting": "[2]", "value": 2000, "unit": "ng/mL"}, {"measurement": "concentration at 8 h", "setting": "[1]", "value": 2430, "unit": "ng/mL"}, {"measurement": "concentration at 24 h", "setting": "[2]", "value": 599, "unit": "ng/mL"}, {"measurement": "concentration at 24 h", "setting": "[1]", "value": 608, "unit": "ng/mL"}, {"measurement": "concentration at 0.083 h", "setting": "[3]", "value": 1170, "unit": "ng/mL"}, {"measurement": "concentration at 0.083 h", "setting": "[4]", "value": 1510, "unit": "ng/mL"}, {"measurement": "concentration at 0.5 h", "setting": "[4]", "value": 5010, "unit": "ng/mL"}, {"measurement": "concentration at 1 h", "setting": "[3]", "value": 3020, "unit": "ng/mL"}, {"measurement": "concentration at 1 h", "setting": "[4]", "value": 4580, "unit": "ng/mL"}, {"measurement": "concentration at 4 h", "setting": "[3]", "value": 2380, "unit": "ng/mL"}, {"measurement": "concentration at 4 h", "setting": "[4]", "value": 3010, "unit": "ng/mL"}, {"measurement": "concentration at 8 h", "setting": "[3]", "value": 3420, "unit": "ng/mL"}, {"measurement": "concentration at 8 h", "setting": "[4]", "value": 4040, "unit": "ng/mL"}, {"measurement": "concentration at 24 h", "setting": "[3]", "value": 1540, "unit": "ng/mL"}, {"measurement": "concentration at 24 h", "setting": "[4]", "value": 1800, "unit": "ng/mL"}, {"measurement": "concentration at 0.083 h", "setting": "[5]", "value": 74600, "unit": "ng/mL"}, {"measurement": "concentration at 0.083 h", "setting": "[6]", "value": 66300, "unit": "ng/mL"}, {"measurement": "concentration at 0.5 h", "setting": "[5]", "value": 30600, "unit": "ng/mL"}, {"measurement": "concentration at 0.5 h", "setting": "[6]", "value": 32900, "unit": "ng/mL"}, {"measurement": "concentration at 1 h", "setting": "[5]", "value": 21000, "unit": "ng/mL"}, {"measurement": "concentration at 1 h", "setting": "[6]", "value": 21400, "unit": "ng/mL"}, {"measurement": "concentration at 4 h", "setting": "[5]", "value": 7790, "unit": "ng/mL"}, {"measurement": "concentration at 4 h", "setting": "[6]", "value": 7590, "unit": "ng/mL"}, {"measurement": "concentration at 8 h", "setting": "[5]", "value": 3920, "unit": "ng/mL"}, {"measurement": "concentration at 8 h", "setting": "[6]", "value": 3730, "unit": "ng/mL"}, {"measurement": "concentration at 0.5 h", "setting": "[7]", "value": 1360, "unit": "ng/mL"}, {"measurement": "concentration at 1 h", "setting": "[8]", "value": 1090, "unit": "ng/mL"}, {"measurement": "concentration at 1 h", "setting": "[7]", "value": 1440, "unit": "ng/mL"}, {"measurement": "concentration at 4 h", "setting": "[8]", "value": 1680, "unit": "ng/mL"}, {"measurement": "concentration at 4 h", "setting": "[7]", "value": 2170, "unit": "ng/mL"}, {"measurement": "concentration at 8 h", "setting": "[8]", "value": 4350, "unit": "ng/mL"}, {"measurement": "concentration at 8 h", "setting": "[7]", "value": 5110, "unit": "ng/mL"}, {"measurement": "concentration at 24 h", "setting": "[7]", "value": 58, "unit": "ng/mL"}]}
